# Assay results reported in patent US20240261302A1, “METHODS OF TREATING NEURODEGENERATIVE DISEASES OR CONDITIONS” (FloraScience Inc., priority 2023, published 2024).
# Columns and labels:
# HT22 cells = test: Seahorse XF Analysis (mitochondrial stress test) in HT22 cells; format: cell-based, mouse
# Method: Seahorse XF Analysis. The assay procedure was previously described. Cellular oxygen consumption rates (OCR) were assayed with a XF Cell Mito Stress Test Kit using a Seahorse XFe96 Extracellular Flux Analyzer (Seahorse Bioscience, North Billerica, MA). Complete Seahorse XF DMEM assay medium was supplemented with 10 mM glucose, 1 mM pyruvate and 2 mM L-glutamine, at pH 7.4. Mitochondrial ETC inhibitors were used at the following concentrations: 1.5 μM oligomycin, 2 μM FCCP, and 0.5 μM of a 1:1 mixture of rotenone and antimycin A. Analyses were conducted using Wave software and XF Report Generators (Agilent Technologies). The sensor cartridge for the XFe analyzer was hydrated overnight at 37° C. before the experiment. OCR data were normalized for total protein/well. Each condition was analyzed in 20-40 wells per independent experiment (n=20-40).
# For HT22 cells, 3,000 cells/well were seeded onto the Seahorse XFe96 plates under normal culture condition as described above. The next day, cells were pretreated with CBN at the desired concentrations for 1 hr followed by addition of RSL3 (50 nM) and coincubation for 16 hr. Immediately before the assay, the culture medium in the plates was replaced with complete Seahorse XF DMEM assay medium. The plates were incubated for 1 hr at 37° C. prior to the XF Cell Mito Stress tests according to the manufacturer's instructions.
# CB1/CB2 receptors = details: cited from earlier work
smiles,measurement,setting,value
"CCCCCc1cc(O)c2c(c1)OC(C)(C)c1ccc(C)cc1-2 [CBN, 6,6,9-Trimethyl-3-pentyl-benzo[c]chromen-1-ol]","ATP production, compound alone",HT22 cells; 10 μM,partially reduced ATP production
same,"basal and maximal mitochondrial respiration, compound alone",HT22 cells; 10 μM,partially decreased both basal and maximal mitochondrial respiration
same,mitochondrial respiration and ATP production with RSL3,"HT22 cells; 10 μM pretreatment, RSL3 50 nM 16 hr",maintenance of mitochondrial respiration and ATP production
same,activity at CB1/CB2 receptors,CB1/CB2 receptors,weak agonist
same,"binding affinities compared to THC, fold lower",CB1/CB2 receptors; tissue- or cell-type specific,10 to 100 fold
